Results published in patent US9862713B2, “Substituted bicyclic heteroaryl compounds as RXR agonists” (CONNEXIOS LIFE SCIENCES PVT. LTD., priority 2014, dated 2018).

Test system: hRXR α, β, or γ
Assay: Transactivation assay (RARE-Luc dual luciferase reporter in HEK-293 cells), activity relative to LG268
Assay type: cell-based, human
Settings: compound at 1 µM, 24 h; luciferase activity expressed relative to LG268
Protocol: HEK-293 cells (ATCC) were seeded one day prior to transfection. For assessing EC50 of activation of RXR isoforms 2 μg of hRXR α, β, or γ (OriGENE, USA) over-expressing vector, 1 μg of plasmid expressing firefly luciferase under RARE element (RARE-Luc) and 25 ng of renilla luciferase vector (QIAGEN, USA) were co-transfected using lipofectamine reagent. Post 24 h of transfection, cells were treated with different concentrations of RXR agonists (100 nM, 300 nM and 1 uM) for 24 h followed by estimation of luciferase activity using Dual Luciferase Reporter Assay System (Promega). Luciferase activity was normalized to that of renilla luciferase. The activities of the RXR compounds were expressed relative to LG268, a known RXR agonist.

| SMILES | Activity at 1 µM |
| --- | --- |
| C=C(c1ccc(C(=O)O)cc1)c1sc2c(c1C)C(C)(C)CCC2(C)C [Compound 1, 4-[1-(3,4,4,7,7-Pentamethyl-4,5,6,7-tetrahydro-1-benzothiophen-2-yl)ethenyl]benzoic acid] | ***** (>1) |
| Cc1c(C2(c3ccc(C(=O)O)cc3)CC2)sc2c1C(C)(C)CCC2(C)C [Compound 2, 4-[1-(3,4,4,7,7-pentamethyl-4,5,6,7-tetrahydro-1-benzothiophen-2-yl)cyclopropyl]benzoic acid] | ***** (>1) |
| Cc1c(/C(=N/O)c2ccc(C(=O)O)cc2)sc2c1C(C)(C)CCC2(C)C [Compound 3, 4-[(E)-(Hydroxyimino) (3,4,4,7,7-pentamethyl-4,5,6,7-tetrahydro-1-benzothiophen-2-yl)methyl]benzoic acid] | ***** (>1) |
| CO/N=C(\c1ccc(C(=O)O)cc1)c1sc2c(c1C)C(C)(C)CCC2(C)C [Compound 4, 4-[(E,Z)-(Methoxyimino) (3,4,4,7,7-pentamethyl-4,5,6,7-tetrahydro-1-benzothiophen-2-yl)methyl]benzoic acid] | **** (>0.9 to <1) |
| Cc1c(C(=O)c2ccc(C(=O)O)cn2)sc2c1C(C)(C)CCC2(C)C [Compound 5, 6-[(3,4,4,7,7-Pentamethyl-4,5,6,7-tetrahydro-1-benzothiophen-2-yl)carbonyl]pyridine-3-carboxylic acid] | ** (>0.7 and <0.8) |
| C=C(c1ccc(C(=O)O)cn1)c1sc2c(c1C)C(C)(C)CCC2(C)C [Compound 6, 6-[1-(3,4,4,7,7-Pentamethyl-4,5,6,7-tetrahydro-1-benzothiophen-2-yl)ethenyl]pyridine-3-carboxylic acid] | *** (>0.8 and <0.9) |
| Cc1c(C2(c3ccc(C(=O)O)cn3)CC2)sc2c1C(C)(C)CCC2(C)C [Compound 7, 6-[1-(3,4,4,7,7-Pentamethyl-4,5,6,7-tetrahydro-1-benzothiophen-2-yl)cyclopropyl]pyridine-3-carboxylic acid] | ***** (>1) |
| Cc1c(N(C)c2ccc(C(=O)O)cc2)sc2c1C(C)(C)CCC2(C)C [Compound 8, 4-[Methyl(3,4,4,7,7-pentamethyl-4,5,6,7-tetrahydro-1-benzothiophen-2-yl)amino]benzoic acid] | ***** (>1) |
| CCN(c1ccc(C(=O)O)cc1)c1sc2c(c1C)C(C)(C)CCC2(C)C [Compound 9, 4-[Ethyl(3,4,4,7,7-pentamethyl-4,5,6,7-tetrahydro-1-benzothiophen-2-yl)amino]benzoic acid] | *** (>0.8 and <0.9) |
| Cc1c(N(c2ccc(C(=O)O)cc2)C2CC2)sc2c1C(C)(C)CCC2(C)C [Compound 10, 4-[Cyclopropyl(3,4,4,7,7-pentamethyl-4,5,6,7-tetrahydro-1-benzothiophen-2-yl)amino]benzoic acid] | ***** (>1) |
| Cc1c(N(CC2CC2)c2ccc(C(=O)O)cc2)sc2c1C(C)(C)CCC2(C)C [Compound 11, 4-[(Cyclopropylmethyl) (3,4,4,7,7-pentamethyl-4,5,6,7-tetrahydro-1-benzothiophen-2-yl)amino]benzoic acid] | **** (>0.9 to <1) |
| Cc1c(N(c2ccc(C(=O)O)cc2)C(C)C)sc2c1C(C)(C)CCC2(C)C [Compound 13, 4-[(3,4,4,7,7-Pentamethyl-4,5,6,7-tetrahydro-1-benzothiophen-2-yl) (propan-2-yl)amino]benzoic acid] | ** (>0.7 and <0.8) |
| Cc1c(N(c2ccc(C(=O)O)cc2)S(C)(=O)=O)sc2c1C(C)(C)CCC2(C)C [Compound 14, 4-[(Methylsulfonyl) (3,4,4,7,7-pentamethyl-4,5,6,7-tetrahydro-1-benzothiophen-2-yl)amino]benzoic acid] | **** (>0.9 to <1) |
| COc1ccc(/C=C/C(=O)O)cc1-c1sc2c(c1C)C(C)(C)CCC2(C)C [Compound 15, (2E)-3-[4-Methoxy-3-(3,4,4,7,7-pentamethyl-4,5,6,7-tetrahydro-1-benzothiophen-2-yl)phenyl]prop-2-enoic acid] | ** (>0.7 and <0.8) |
| COc1ccc(C2CC2C(=O)O)cc1-c1sc2c(c1C)C(C)(C)CCC2(C)C (stereo not shown) [Compound 16, 2-[4-Methoxy-3-(3,4,4,7,7-pentamethyl-4,5,6,7-tetrahydro-1-benzothiophen-2-yl)phenyl]cyclopropanecarboxylic acid] | * (<0.7) |
| Cc1c(N(C)c2ccc(C(=O)O)cn2)sc2c1C(C)(C)CCC2(C)C [Compound 17, 6-[Methyl(3,4,4,7,7-pentamethyl-4,5,6,7-tetrahydro-1-benzothiophen-2-yl)amino]pyridine-3-carboxylic acid] | ***** (>1) |
| CCN(c1ccc(C(=O)O)cn1)c1sc2c(c1C)C(C)(C)CCC2(C)C [Compound 18, 6-[Ethyl(3,4,4,7,7-pentamethyl-4,5,6,7-tetrahydro-1-benzothiophen-2-yl)amino]pyridine-3-carboxylic acid] | ***** (>1) |
| Cc1c(N(c2ccc(C(=O)O)cn2)C2CC2)sc2c1C(C)(C)CCC2(C)C [Compound 19, 6-[Cyclopropyl(3,4,4,7,7-pentamethyl-4,5,6,7-tetrahydro-1-benzothiophen-2-yl)amino]pyridine-3-carboxylic acid] | ***** (>1) |
| Cc1c(N(CC2CC2)c2ccc(C(=O)O)cn2)sc2c1C(C)(C)CCC2(C)C [Compound 20, 6-[(Cyclopropylmethyl) (3,4,4,7,7-pentamethyl-4,5,6,7-tetrahydro-1-benzothiophen-2-yl)amino]pyridine-3-carboxylic acid] | ***** (>1) |
| Cc1c(N(c2ccc(C(=O)O)cn2)C(C)C)sc2c1C(C)(C)CCC2(C)C [Compound 21, 6-[(3,4,4,7,7-Pentamethyl-4,5,6,7-tetrahydro-1-benzothiophen-2-yl) (propan-2-yl)amino]pyridine-3-carboxylic acid] | ***** (>1) |
| Cc1c(N(c2ccc(C(=O)O)cn2)S(C)(=O)=O)sc2c1C(C)(C)CCC2(C)C [Compound 22, 6-[(Methylsulfonyl) (3,4,4,7,7-pentamethyl-4,5,6,7-tetrahydro-1-benzothiophen-2-yl)amino]pyridine-3-carboxylic acid] | ***** (>1) |
| Cc1c(N(C)c2ncc(C(=O)O)cn2)sc2c1C(C)(C)CCC2(C)C [Compound 23, 2-[Methyl(3,4,4,7,7-pentamethyl-4,5,6,7-tetrahydro-1-benzothiophen-2-yl)amino]pyrimidine-5-carboxylic acid] | *** (>0.8 and <0.9) |
| Cc1c(N(c2ncc(C(=O)O)cn2)C2CC2)sc2c1C(C)(C)CCC2(C)C [Compound 24, 2-[Cyclopropyl(3,4,4,7,7-pentamethyl-4,5,6,7-tetrahydro-1-benzothiophen-2-yl)amino]pyrimidine-5-carboxylic acid] | *** (>0.8 and <0.9) |
| Cc1c(NC(=O)c2ccc(C(=O)O)cc2)sc2c1C(C)(C)CCC2(C)C [Compound 25, 4-[(3,4,4,7,7-Pentamethyl-4,5,6,7-tetrahydro-1-benzothiophen-2-yl)carbamoyl]benzoic acid] | * (<0.7) |
| Cc1c(N(C)c2ccc(C(=O)O)cn2)sc2c1C(C)(C)CCC2 [Compound 26, 6-[Methyl(3,4,4-trimethyl-4,5,6,7-tetrahydro-1-benzothiophen-2-yl)amino]pyridine-3-carboxylic acid] | * (<0.7) |
